Laboratory results: ChEMBL document CHEMBL4665895, “Covalent Bridging of Corilagin Improves Antiferroptosis Activity: Comparison with 1,3,6-Tri-O-galloyl-β-d-glucopyranose” (ACS Med Chem Lett, 2020)
The source made the active and inactive calls. The rule behind the calls is not given here.

Tests used:
Bone marrow cell [1] = assay: Anti-ferroptosis activity against erastin-induced ferroptosis in Sprague-Dawley rat bmMSC cells assessed as increase in cell viability at 0.47 to 4.7 uM preincubated for 12 hrs followed by compound addition and measured after 12 hrs by CCK8 assay; type: functional, cell-based; conditions: dose microM 0.47-4.7, time 12.0 hrs
Bone marrow cell [2] = assay: Anti-ferroptosis activity against erastin-induced ferroptosis in Sprague-Dawley rat bmMSC cells assessed as inhibition of lipid peroxidation at 3 ug/ml preincubated for 12 hrs followed by compound addition and measured after 12 hrs by C11-Bodipy fluorescent dye based microscopic analysis; type: functional; conditions: dose 3.0 µg/ml
[3] = Anti-ferroptosis activity against erastin-induced ferroptosis in Sprague-Dawley rat bmMSC cells assessed as cellular death at 4.7 uM after 1 hr by AnnexinV-FITC/propidium iodide staining-based flow cytometric analysis (reference value: 3.73%); type: functional, Bone marrow cell
[4] = Anti-ferroptosis activity against erastin-induced ferroptosis in Sprague-Dawley rat bmMSC cells assessed as late cell death at 4.7 uM after 1 hr by AnnexinV-FITC/propidium iodide staining-based flow cytometric analysis (reference value: 19.9%); type: functional, Bone marrow cell
[5] = Anti-ferroptosis activity against erastin-induced ferroptosis in Sprague-Dawley rat bmMSC cells assessed as early cell death at 4.7 uM after 1 hr by AnnexinV-FITC/propidium iodide staining-based flow cytometric analysis (reference value: 10.4%); type: functional, Bone marrow cell
[6] = Anti-ferroptosis activity against erastin-induced ferroptosis in Spargue-Dawley rat bmMSCs cells assessed as cell viability at 4.7 uM after 1 hr by AnnexinV-FITC/propidium iodide staining based flow cytometry analysis (reference value: 65.9%); type: functional; conditions: Bone marrow cell, read-out: Activity
[7] = Metal chelating activity assessed as Fe2+-compound complex formation incubated for 5 mins by colorimetry
[8] = Antioxidant activity in pH 7.4 phosphate buffer assessed as PTIO radical scavenging activity after 1 hr by microplate reader based assay; type: functional
[9] = Antioxidant activity in pH 4.5 phosphate buffer assessed as PTIO radical scavenging activity after 1 hr by microplate reader based assay; type: functional
[10] = Antioxidant activity assessed as ferric ion reducing activity using FeCl3.H2O and TPTZ incubated for 30 mins by FRAP assay; type: functional
[11] = Antioxidant activity assessed as DPPH free radical scavenging activity after 5 mins by microplate reader based assay; type: functional
[12] = Potency index, ratio of trolox IC50 to test compound IC50 for antioxidant activity assessed as DPPH radical scavenging activity; type: functional
[13] = Antioxidant activity assessed as compound-DPPH adduct formation with covalent bridging by UHPLC-ESI-Q-TOF-MS analysis; type: functional
[14] = Metal chelating activity assessed as Fe2+-compound complex formation by measuring red shift by UV-visible spectrophotometry

| SMILES | Activity (Bone marrow cell [1]) | Activity (Bone marrow cell [2]) | Activity [3] [%] | Activity [4] [%] | Activity [5] [%] | viability at 4.7 µM [6] [%] | IC50 [7] [µM] | inhibition [7] | IC50 [8] [µM] | inhibition [8] | IC50 [9] [µM] | inhibition [9] | IC50 [10] [µM] | inhibition [10] | IC50 [11] [µM] | inhibition [11] | Ratio IC50 [12] | Activity [13] | Activity [14] |
| --- | --- | --- | --- | --- | --- | --- | --- | --- | --- | --- | --- | --- | --- | --- | --- | --- | --- | --- | --- |
| O=C(OC[C@H]1O[C@@H](OC(=O)c2cc(O)c(O)c(O)c2)[C@H](O)[C@@H](OC(=O)c2cc(O)c(O)c(O)c2)[C@@H]1O)c1cc(O)c(O)c(O)c1 | Active | Active | 2.2 | 9 | 10.3 | 78.4 | 11 | Dose-dependent effect | 115 | Dose-dependent effect | 290 | Dose-dependent effect | 35 | Dose-dependent effect | 1 | Dose-dependent effect | 6.5 | Active | Active |
| Cc1c(C)c2c(c(C)c1O)CCC(C)(C(=O)O)O2 (racemic) [TROLOX] |  |  |  |  |  |  |  |  | 445 |  | 289 |  | 81 |  | 7 |  |  |  |  |
| O=C(O[C@@H]1O[C@@H]2COC(=O)c3cc(O)c(O)c(O)c3-c3c(cc(O)c(O)c3O)C(=O)O[C@H]([C@H]1O)[C@@H]2O)c1cc(O)c(O)c(O)c1 [CORILAGIN] | Active | Active | 2.7 | 7.8 | 9.2 | 80.2 | 7 | Dose-dependent effect | 94 | Dose-dependent effect | 204 | Dose-dependent effect | 12 | Dose-dependent effect | 1 | Dose-dependent effect | 8 | Active | Active |
| O=C([O-])CC(O)(CC(=O)[O-])C(=O)[O-].[Na+].[Na+].[Na+] [SODIUM CITRATE] |  |  |  |  |  |  | 14 |  |  |  |  |  |  |  |  |  |  |  |  |
